Consider 1 compound from US20030211457A1, “Methods and kits for testing mutagenicity” (Transgenomic, Inc., priority 2002, published 2003).

Data set [1] concerns TA 1535. Particulars: TA1535, 1.5-hour exposure, plates incubated 2 days at 37° C., two columns of counts.
Protocol: For comparative purposes, Ames modified plate assay were performed. […] After the 1.5-hour exposure, the incubation was add to 2 ml of melted top agar, containing limited histidine and biotin, equilibrated to 50° C. (MOLTOX catalog no. 26-503) and plated on minimal plates lacking histidine (MOLTOX catalog no.21-400). The plates were incubated 2 days at 37° C. and revertant colonies counted as shown:
In data set [2] the test system is TA 1535. Particulars: TA1535; azide levels 0.08, 0.2, 0.66, 2.0 and 6 ug; 1.5 hours at 37° C. then 18 hrs selective enrichment; no heteroduplex in vehicle control.
Protocol: Reactions were performed in sterile 1.5 ml microfuge tubes. Each tube contained: In a first stage incubation, 1 ul of overnight culture of TA 1535; 6.5 ul LB; 15 ul H2O (or S9); 67.5 ul M9 (−histidine+biotin). These four components are added from a master mix to the microfuge tubes. […] The mixture was incubated 1.5 hours at 37° C. The lids of the tubes were closed, but ventilated by piercing with a needle, for aeration. In a second stage incubation, 800 ul of Selective Enrichment Media was added, and the mixture is incubated for 18 hrs without shaking.
Selective Enrichment Media was prepared in a final volume of 900 ml as follows:
The media was autoclaved and cooled to room temperature. 90 ml of autoclaved 20% glucose was added. Prior to use, Biotin (Sigma) was added from a 400× stock (1.25M) to a final concentration of 1×.
A 1 ul aliquot was used in a “Hot start” PCR amplification with a final denaturation/renaturation step followed by analysis by DHPLC. Each dose was processed in quadruplicate.
For TA1535, the following 342 bp amplicon from the hisG gene was prepared:
In the PCR, the forward primer was [sequence] (SEQ ID NO: 2) and the reverse primer was [sequence] (SEQ ID NO: 3). The DNA polymerase was Optimase™ polymerase. The PCR conditions were as follows: […]

SMILES strings stand for the structures. Values joined by “and” are separate entries in the source; they are usually repeats but may differ in a detail not shown here. Equal entries are not always repeated. Where two headings read alike, the source gives them in different places.

Turning to `[N-]=[N+]=[N-]` [sodium azide], the no. revertant colonies is 3 and 5 in the data set with TA 1535 [1] (NaN3 exposure amount 0.08 ug); 13 with TA 1535 [1] (NaN3 exposure amount 0.2 ug); 15 and 27 in the data set with TA 1535 [1] (NaN3 exposure amount 0.6 ug); 39 and 66 in the data set on TA 1535 [1] (NaN3 exposure amount 2 ug); greater than 100 in the data set on TA 1535 [1] (NaN3 exposure amount 6 ug). Also, in the data set with TA 1535 [2], the “DNA back-mutation at the hot spot (heteroduplex by DHPLC)” value is “caused DNA back-mutation at the hot spot”.
